Measured values reported in patent US20120252741A1, “NOVEL SEMI-SYNTHETIC GLYCOPEPTIDES AS ANTIBACTERIAL AGENTS” (priority 2008, published 2012).
≈ marks a conversion by molar mass, not a printed value. Read-outs that look alike come from different tables or passages of the source.

Key:
Format in all cases: cell-based
[1] = test system: Staphylococcus aureus 100 (ATCC 29213); test: MIC, broth microdilution, SA 100; conditions: Staphylococcus aureus, ATCC29213, class symbols, read-out: MIC SA 100
Experimental: (§1) Antibacterial activity in vitro is investigated by broth microdilution method in Meuller-Hinton broth as recommended by NCCLS. All strains tested are clinical isolates either sensitive or resistant to natural glycopeptides. MIC values were determined using the CLSI-recommended broth microdilution procedure (Clinical and Laboratory Standards Institute, Methods for Dilution Antimicrobial Susceptibility Tests for Bacteria That Grow Aerobically; Approved Standard-Seventh Edition.). Automated liquid handlers (Multidrop 384, Labsystems, Helsinki, Finland; Biomek 2000 and Multimek 96, Beckman Coulter, Fullerton Calif.) were used to conduct serial dilutions and liquid transfers. The MIC value for vancomycin is given for comparison. The abbreviations for organisms tested are as follow: SA 100—Staphylococcus aureus 100 (ATCC 29213); SA 757—Staphylococcus aureus 757 (MRSA); SA 2012—Staphylococcus aureus 2012 (VISA); SE 835—Staphylococcus epidermidis 835; SE 831—Staphylococcus epidermidis 831 (MRSE); EFc 101—Enterococcus faecalis 101 (ATCC 29212); EFc 848—Enterococcus faecalis 848 (VRE, Van A); EFcm 800—Enterococcus faecium 800; EFcm 752—Enterococcus faecium 752 (VRE, Van A); SPNE 1195—Streptococcus pneumoniae 1195 (ATCC 49619); SPY 712—Streptococcus pyogenes 712.

[2] = test system: Enterococcus faecalis 848 (VRE, Van A); test: MIC, broth microdilution, EFc 848; conditions: VRE, Van A, class symbols, read-out: MIC E FC 848
Experimental: as §1

[3] = test system: Staphylococcus epidermidis 831 (MRSE); test: MIC, broth microdilution, SE 831; conditions: Staphylococcus epidermidis, read-out: MIC SE 831
Experimental: as §1

Enterococcus faecium 800 = test: MIC, broth microdilution, EFcm 800; conditions: Enterococcus faecium, 800, class symbols, read-out: MIC E FCM 800
Experimental: as §1

[4] = test system: Staphylococcus aureus 2012 (VISA); test: MIC, broth microdilution, SA 2012; conditions: read-out: MIC SA 2012
Experimental: as §1

[5] = test system: Staphylococcus epidermidis 835; test: MIC, broth microdilution, SE 835; conditions: Staphylococcus epidermidis, 835, class symbols, read-out: MIC SE 835
Experimental: as §1

[6] = test system: Streptococcus pneumoniae 1195 (ATCC 49619); test: MIC, broth microdilution, SPNE 1195; conditions: Streptococcus pneumoniae, ATCC49619, class symbols, read-out: MIC S PNE 1195
Experimental: as §1

[7] = test system: Streptococcus pyogenes 712; test: MIC, broth microdilution, SPY 712; conditions: Streptococcus pyogenes, 712, class symbols, read-out: MIC S PYO 712
Experimental: as §1

[8] = test system: Enterococcus faecalis 101 (ATCC 29212); test: MIC, broth microdilution, EFc 101; conditions: Enterococcus faecalis, ATCC29212, class symbols, read-out: MIC E FC 101
Experimental: as §1

[9] = test system: Staphylococcus aureus 757 (MRSA); test: MIC, broth microdilution, SA 757; conditions: read-out: MIC SA 757
Experimental: as §1

[10] = test system: Enterococcus faecium 752 (VRE, Van A); test: MIC, broth microdilution, EFcm 752; conditions: VRE, Van A, class symbols, read-out: MIC E FCM 752
Experimental: as §1

[11] = Table 2, in the presence of 0.002% Polysorbate 80
[12] = Table 2, in the presence of 0.002% Polysorbate 80, class symbols

Row | Structure (SMILES) | MIC [1, 11] | MIC [2, 11] | MIC [3, 12] | MIC (Enterococcus faecium 800; [11]) | MIC [4, 12] | MIC [5, 11] | MIC [6, 11] | MIC [7, 11] | MIC [8, 11] | MIC [9, 12] | MIC [10, 11] | further results
1 | CN[C@H](CC(C)C)C(=O)N[C@H]1C(=O)N[C@@H](CC(=O)NC(=O)c2ccc(OCCCN)c(OCCCN)c2)C(=O)N[C@H]2C(=O)N[C@H]3C(=O)N[C@H](C(=O)N[C@H](C(=O)NC4C5CC6CC(C5)CC4C6)c4cc(O)cc(O)c4-c4cc3ccc4O)[C@H](O)c3ccc(c(Cl)c3)Oc3cc2cc(c3O[C@@H]2O[C@H](CO)[C@@H](O)[C@H](O)[C@H]2O[C@H]2C[C@](C)(N)[C@H](O)[C@H](C)O2)Oc2ccc(cc2Cl)[C@H]1O (some centres unmarked) [Compound 166] | 0.01 to 0.5 µg/mL | > 16 µg/mL | 0.01 to 0.5 µg/mL | 0.01 to 0.5 µg/mL | 1 to 2 µg/mL | 0.5 to 1 µg/mL | 0.01 to 0.5 µg/mL | 0.01 to 0.5 µg/mL | 0.01 to 0.5 µg/mL | 0.01 to 0.5 µg/mL | 2 to 4 µg/mL | –
2 | CCOCCOCCOc1ccc(S(=O)(=O)NC(=O)C[C@@H]2NC(=O)[C@H](NC(=O)[C@@H](CC(C)C)NC)[C@H](O)c3ccc(c(Cl)c3)Oc3cc4cc(c3O[C@@H]3O[C@H](CN)[C@@H](O)[C@H](O)[C@H]3O)Oc3ccc(cc3Cl)[C@@H](O)[C@@H]3NC(=O)[C@H](NC(=O)[C@@H]4NC2=O)c2ccc(O)c(c2)-c2c(O)cc(O)cc2[C@@H](C(=O)NC2C4CC5CC(C4)CC2C5)NC3=O)cc1 (some centres unmarked) [Compound 103] | – | – | – | – | – | – | – | – | – | – | – | MIC ([1]; Table 1): 0.5 to 1 µg/mL (≈ 0.292 to 0.585 µM); MIC ([2]; Table 1): 2 to 4 µg/mL (≈ 1.17 to 2.34 µM); MIC ([3]; Table 1, class symbols): 0.01 to 0.5 µg/mL (≈ 0.00585 to 0.292 µM); MIC (Enterococcus faecium 800; Table 1): 0.01 to 0.5 µg/mL (≈ 0.00585 to 0.292 µM); MIC ([4]; Table 1, class symbols): 1 to 2 µg/mL (≈ 0.585 to 1.17 µM); MIC ([5]; Table 1): 0.01 to 0.5 µg/mL (≈ 0.00585 to 0.292 µM); MIC ([6]; Table 1): 0.5 to 1 µg/mL (≈ 0.292 to 0.585 µM); MIC ([7]; Table 1): 0.01 to 0.5 µg/mL (≈ 0.00585 to 0.292 µM); MIC ([8]; Table 1): 0.01 to 0.5 µg/mL (≈ 0.00585 to 0.292 µM); MIC ([9]; Table 1, class symbols): 0.01 to 0.5 µg/mL (≈ 0.00585 to 0.292 µM); MIC ([10]; Table 1): 1 to 2 µg/mL (≈ 0.585 to 1.17 µM)
3 | CNCCOc1ccc(C(=O)NC(=O)C[C@@H]2NC(=O)[C@H](NC(=O)[C@@H](CC(C)C)NC)[C@H](O)c3ccc(c(Cl)c3)Oc3cc4cc(c3O[C@@H]3O[C@H](CO)[C@@H](O)[C@H](O)[C@H]3O[C@H]3C[C@](C)(N)[C@H](O)[C@H](C)O3)Oc3ccc(cc3Cl)[C@@H](O)[C@@H]3NC(=O)[C@H](NC(=O)[C@@H]4NC2=O)c2ccc(O)c(c2)-c2c(O)cc(O)cc2[C@@H](C(=O)NC2C4CC5CC(C4)CC2C5)NC3=O)cc1OCCNC (some centres unmarked) [Compound 152] | 0.01 to 0.5 µg/mL | > 16 µg/mL | 0.01 to 0.5 µg/mL | 0.01 to 0.5 µg/mL | 1 to 2 µg/mL | 0.01 to 0.5 µg/mL | 0.01 to 0.5 µg/mL | 0.01 to 0.5 µg/mL | 0.01 to 0.5 µg/mL | 0.01 to 0.5 µg/mL | 4 to 8 µg/mL | –
4 | CNCCOCc1cc(OCCNC)cc(C(=O)NC(=O)C[C@@H]2NC(=O)[C@H](NC(=O)[C@@H](CC(C)C)NC)[C@H](O)c3ccc(c(Cl)c3)Oc3cc4cc(c3O[C@@H]3O[C@H](CO)[C@@H](O)[C@H](O)[C@H]3O[C@H]3C[C@](C)(N)[C@H](O)[C@H](C)O3)Oc3ccc(cc3Cl)[C@@H](O)[C@@H]3NC(=O)[C@H](NC(=O)[C@@H]4NC2=O)c2ccc(O)c(c2)-c2c(O)cc(O)cc2[C@@H](C(=O)NC2C4CC5CC(C4)CC2C5)NC3=O)c1 (some centres unmarked) [Compound 153] | 0.01 to 0.5 µg/mL | > 16 µg/mL | 0.01 to 0.5 µg/mL | 0.01 to 0.5 µg/mL | 0.5 to 1 µg/mL | 0.01 to 0.5 µg/mL | 0.01 to 0.5 µg/mL | 0.01 to 0.5 µg/mL | 0.01 to 0.5 µg/mL | 0.01 to 0.5 µg/mL | > 16 µg/mL | –
